From US8633313B2, “Heterocyclic compounds and their uses” (Amgen Inc., priority 2009, dated 2014)

Tests used:
PI3K delta = molecular target: T1, PI3K delta (Homo sapiens, UniProt O00329); experiment: In vitro enzyme assay, PI3K delta biochemical potency; details: comparison of the two separated enantiomers
T1 construct: Full length p110 subunits of PI3k α, β and δ, N-terminally labeled with polyHis tag; polyHis (N); made in house; host or cells: Sf9 insect cells (baculovirus)
Procedure: Full length p110 subunits of PI3k α, β and δ, N-terminally labeled with polyHis tag, were coexpressed with p85 with Baculo virus expression vectors in sf9 insect cells. P110/p85 heterodimers were purified by sequential Ni-NTA, Q-HP, Superdex-100 chromatography. Purified α, β and δ isozymes were stored at −20° C. in 20 mM Tris, pH 8, 0.2M NaCl, 50% glycerol, 5 mM DTT, 2 mM Na cholate. Truncated PI3Kγ, residues 114-1102, N-terminally labeled with polyHis tag, was expressed with Baculo virus in Hi5 insect cells. The γ isozyme was purified by sequential Ni-NTA, Superdex-200, Q-HP chromatography. The γ isozyme was stored frozen at −80° C. in NaH2PO4, pH 8, 0.2M NaCl, 1% ethylene glycol, 2 mM β-mercaptoethanol.
Assays were performed in 25 μL with the above final concentrations of components in white polyproplyene plates (Costar 3355). Phospatidyl inositol phosphoacceptor, PtdIns(4,5)P2 P4508, was from Echelon Biosciences. The ATPase activity of the alpha and gamma isozymes was not greatly stimulated by PtdIns(4,5)P2 under these conditions and was therefore omitted from the assay of these isozymes. Test compounds were dissolved in dimethyl sulfoxide and diluted with three-fold serial dilutions. The compound in DMSO (1 μL) was added per test well, and the inhibition relative to reactions containing no compound, with and without enzyme was determined. After assay incubation at rt, the reaction was stopped and residual ATP determined by addition of an equal volume of a commercial ATP bioluminescence kit (Perkin Elmer EasyLite) according to the manufacturer's instructions, and detected using a AnalystGT luminometer.

[1] = test system: systemic lupus erythematosis model; details: in vivo; cited from earlier work
[2] = test system: rheumatoid arthritis model; details: in vivo; cited from earlier work
protein kinases = details: cited from earlier work
p110δ = molecular target: T2, p110δ (Homo sapiens, UniProt O00329); details: cited from earlier work
T2 sequence (O00329 1-1044): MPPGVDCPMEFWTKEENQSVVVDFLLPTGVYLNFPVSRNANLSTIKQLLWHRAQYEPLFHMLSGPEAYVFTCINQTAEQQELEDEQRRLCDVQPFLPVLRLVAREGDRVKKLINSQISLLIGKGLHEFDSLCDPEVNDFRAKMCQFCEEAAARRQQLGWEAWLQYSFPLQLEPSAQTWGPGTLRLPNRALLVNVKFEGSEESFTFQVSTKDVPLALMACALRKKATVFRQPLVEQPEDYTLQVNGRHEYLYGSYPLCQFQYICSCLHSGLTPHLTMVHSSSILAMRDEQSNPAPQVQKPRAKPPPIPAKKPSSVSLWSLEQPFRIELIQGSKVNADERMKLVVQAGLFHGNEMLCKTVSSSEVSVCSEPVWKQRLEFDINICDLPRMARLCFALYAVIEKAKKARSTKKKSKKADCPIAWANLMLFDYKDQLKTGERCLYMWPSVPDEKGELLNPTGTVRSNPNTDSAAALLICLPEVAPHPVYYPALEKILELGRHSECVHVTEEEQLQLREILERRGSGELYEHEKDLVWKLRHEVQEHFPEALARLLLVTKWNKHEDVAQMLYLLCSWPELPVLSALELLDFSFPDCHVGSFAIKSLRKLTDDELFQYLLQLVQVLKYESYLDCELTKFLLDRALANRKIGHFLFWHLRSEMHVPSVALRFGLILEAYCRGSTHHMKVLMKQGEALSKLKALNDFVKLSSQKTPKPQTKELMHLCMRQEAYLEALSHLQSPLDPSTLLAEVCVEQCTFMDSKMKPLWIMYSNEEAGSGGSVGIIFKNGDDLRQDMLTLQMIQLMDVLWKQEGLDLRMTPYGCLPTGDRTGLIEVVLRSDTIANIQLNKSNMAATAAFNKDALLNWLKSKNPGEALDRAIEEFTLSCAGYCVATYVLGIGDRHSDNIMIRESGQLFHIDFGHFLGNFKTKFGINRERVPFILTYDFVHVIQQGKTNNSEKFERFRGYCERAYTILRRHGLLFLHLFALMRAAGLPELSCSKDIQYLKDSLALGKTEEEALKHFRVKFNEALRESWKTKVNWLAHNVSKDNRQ

[3] = test system: ovalbumin-induced airway inflammation; details: cited from earlier work

T1 sequence (P27986 whole entry partner, one chain of several): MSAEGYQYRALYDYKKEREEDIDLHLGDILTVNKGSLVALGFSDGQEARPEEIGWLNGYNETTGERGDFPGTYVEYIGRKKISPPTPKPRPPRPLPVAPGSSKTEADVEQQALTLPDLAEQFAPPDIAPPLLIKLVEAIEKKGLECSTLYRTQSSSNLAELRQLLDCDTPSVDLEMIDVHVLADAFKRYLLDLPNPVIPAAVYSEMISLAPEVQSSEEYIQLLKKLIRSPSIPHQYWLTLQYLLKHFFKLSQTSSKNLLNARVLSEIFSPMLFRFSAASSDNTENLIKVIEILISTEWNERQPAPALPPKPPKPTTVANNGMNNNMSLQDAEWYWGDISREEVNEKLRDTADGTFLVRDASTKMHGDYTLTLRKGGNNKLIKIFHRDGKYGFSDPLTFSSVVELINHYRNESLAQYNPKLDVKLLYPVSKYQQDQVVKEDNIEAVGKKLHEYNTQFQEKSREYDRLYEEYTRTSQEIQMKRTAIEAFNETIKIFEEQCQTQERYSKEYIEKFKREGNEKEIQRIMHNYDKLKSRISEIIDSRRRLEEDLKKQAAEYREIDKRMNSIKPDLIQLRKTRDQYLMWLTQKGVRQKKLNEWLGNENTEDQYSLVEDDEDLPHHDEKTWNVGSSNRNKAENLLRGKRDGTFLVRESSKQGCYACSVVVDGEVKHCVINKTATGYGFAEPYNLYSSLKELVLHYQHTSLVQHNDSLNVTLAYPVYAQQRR

SMILES | PI3K delta biochemical potency, one isomer relative to the other (PI3K delta) | further results
C[C@H](Nc1ncnc(N)c1C#N)c1nc2cccnc2cc1-c1ccccc1 (single isomer, unassigned; isomer 4) [Example 4 S-isomer] | more potent | –
C[C@@H](Nc1ncnc(N)c1C#N)c1cc2ncccc2nc1-c1cc(F)cc(F)c1 (single isomer, unassigned; isomer 4) [Example 3 R-isomer] | less potent | –
C[C@@H](Nc1ncnc(N)c1C#N)c1cc2ncccc2nc1-c1ccccc1F (single isomer, unassigned; isomer 4) [Example 2 R-isomer] | less potent | –
C[C@H](Nc1ncnc(N)c1C#N)c1cc2ncccc2nc1-c1cc(F)cc(F)c1 (single isomer, unassigned; isomer 4) [Example 3 S-isomer] | more potent | –
C[C@@H](Nc1ncnc(N)c1C#N)c1nc2cccnc2cc1-c1ccccc1 (single isomer, unassigned; isomer 4) [Example 4 R-isomer] | less potent | –
C[C@H](Nc1ncnc(N)c1C#N)c1cc2ncccc2nc1-c1ccccc1F (single isomer, unassigned; isomer 4) [Example 2 S-isomer] | more potent | –
O=C1NC(=O)/C(=C\c2ccc3nccnc3c2)S1 [AS 605240] | – | onset of disease in a model of systemic lupus erythematosis [1]: delay onset of disease; efficacy in a mouse model of rheumatoid arthritis [2]: efficacious
Cc1ccccc1-n1c(Cn2cnc3c(N)ncnc32)nc2cccc(C)c2c1=O [IC87114] | – | activity against any protein kinases tested (protein kinases): no activity; inhibition of p110δ (p110δ): high nanomolar range (triple digit); inflammation and disease in a murine model of asthma [3]: significantly ameliorate inflammation and disease
